Test [1] has as its system Mus musculus. The experiment in a line: Anti-alzheimer activity against 5 month old APP/PS1 transgenic mouse model assessed as decrease in anxiety level at 10 mg/kg, po administered 4 times per week for 4 weeks. The class given is functional, organism-based.
The test system of test [2] is Mus musculus. The experiment in a line: Anti-alzheimer activity against 5 month old APP/PS1 transgenic mouse model assessed as decrease in restlessness at 10 mg/kg, po administered 4 times per week for 4 weeks. The format is functional, organism-based.
In test [3] the test system is Mus musculus. Put plainly: Anti-alzheimer activity against 8 month old 3xTg mouse model assessed as decrease in anxiety level at 10 mg/kg, po administered 4 times per week for 4 weeks. The format is functional, organism-based.
The test system of test [4] is Mus musculus. The experiment in a line: Anti-alzheimer activity against 8 month old 3xTg mouse model assessed as decrease in restlessness at 10 mg/kg, po administered 4 times per week for 4 weeks. The class given is functional, organism-based.
Test [5] relates to BV-2. The experiment in a line: Synergistic anti-necroptosis activity in LPS/zVAD stimulated mouse BV-2 cells preincubated with LPS for 11 hrs followed by compound addition for 1 hr and exposed to zVAD-fmk for another 24 hrs in presence of crizotinib by Cellcounting-Lite 2.0 luminescent cell viability assay. The format is functional, cell-based. The conditions noted are these: time 25.0 hrs.

The test system of test [6] is BV-2. Put plainly: Synergistic anti-necroptosis activity in LPS/zVAD stimulated mouse BV-2 cells at 100 nM preincubated with LPS for 11 hrs followed by compound addition for 1 hr and exposed to zVAD-fmk for another 24 hrs in presence of PF-06260933 and crizotinib by Cellcounting-Lite 2.0 luminescent cell viability assay. The class given is functional, cell-based. The conditions noted are these: time 25.0 hrs.

Test [7] relates to BV-2. The experiment in a line: Synergistic anti-necroptosis activity in LPS/zVAD stimulated mouse BV-2 cells at 100 nM preincubated with LPS for 11 hrs followed by compound addition for 1 hr and exposed to zVAD-fmk for another 24 hrs in presence of PF-06260933 and entrectinib by Cellcounting-Lite 2.0 luminescent cell viability assay. The class given is functional, cell-based. The conditions noted are these: time 25.0 hrs.

The subject of test [8] is BV-2. Put plainly: Synergistic anti-necroptosis activity in LPS/zVAD stimulated mouse BV-2 cells at 100 nM preincubated with LPS for 11 hrs followed by compound addition for 1 hr and exposed to zVAD-fmk for another 24 hrs in presence of PF-06260933 and TAE684 by Cellcounting-Lite 2.0 luminescent cell viability assay. The settings on record: time 25.0 hrs. The format is functional, cell-based.

In test [9] the test system is BV-2. Put plainly: Synergistic anti-necroptosis activity in LPS/zVAD stimulated mouse BV-2 cells at 100 nM preincubated with LPS for 11 hrs followed by compound addition for 1 hr and exposed to zVAD-fmk for another 24 hrs in presence of PF-06260933 and LDK378 by Cellcounting-Lite 2.0 luminescent cell viability assay. The format is functional, cell-based. The conditions noted are these: time 25.0 hrs.

The test system of test [10] is BV-2. The experiment in a line: Downregulation of p-RIPK1 expression in mouse BV-2 cells at 100 nM in presence of PF-06260933 and crizotinib by Western blotting analysis. The format is functional, cell-based.
In test [11] the test system is BV-2. Put plainly: Downregulation of p-MLKL expression in mouse BV-2 cells at 100 nM in presence of PF-06260933 and crizotinib by Western blotting analysis. The class given is functional, cell-based. Background: A western blot detects proteins with antibodies after separation by electrophoresis.
Test [12] relates to BV-2. Put plainly: Anti-necroptosis activity in LPS/zVAD stimulated mouse BV-2 cells assessed as inhibition of extranuclear p65 at 100 nM. The format is functional, cell-based.
Test [13] concerns BV-2. Put plainly: Anti-necroptosis activity in LPS/zVAD stimulated mouse BV-2 cells assessed as inhibition of p65 nuclear translocation at 100 nM. The class given is functional, cell-based.
Test [14] has as its system BV-2. The experiment in a line: Anti-necroptosis activity in LPS/zVAD stimulated mouse BV-2 cells assessed as inhibition of p65 activation at 100 nM in presence of PF-06260933 and crizotinib. The class given is functional. Further details: scale not given: the % may be the effect or the level left.
Test [15] has as its system BV-2. The experiment in a line: Anti-necroptosis activity in LPS/zVAD stimulated mouse BV-2 cells assessed as inhibition of p65 nuclear translocation at 100 nM in presence of PF-06260933 and crizotinib. The class given is functional. Further details: scale not given: the % may be the effect or the level left.
Test [16] has as its system BV-2. The experiment in a line: Anti-inflammatory activity against LPS/zVAD treated mouse BV-2 cells assessed as decrease in TNFalpha release at 100 nM in presence of PF-06260933 and crizotinib by ELISA. The class given is functional, cell-based. In general terms: ELISA stands for enzyme-linked immunosorbent assay.
Test [17] concerns BV-2. Put plainly: Anti-inflammatory activity against LPS/zVAD treated mouse BV-2 cells assessed as decrease in IL-1beta release at 100 nM in presence of PF-06260933 and crizotinib by ELISA. The format is functional, cell-based.

Activity calls are given as the source filed them. The rule behind the calls is not given here.

With `CN1C(=O)C(Cc2c[nH]c3ccccc23)NC1=S` (configuration not stated) [NECROSTATIN], the result with Mus musculus [1], with Mus musculus [2], in the test on Mus musculus [3], with Mus musculus [4], with BV-2 [6] and in the test on BV-2 [7] was Active. Further, the result in the test with BV-2 [8], in the test on BV-2 [9], with BV-2 [10], in the test on BV-2 [11], in the test with BV-2 [13] and in the test with BV-2 [16] was Active. Also, in the test on BV-2 [17], the result was Active. Also, the outcome in the test on BV-2 [5] and with BV-2 [12] was inactive. Moreover, the Activity in the test on BV-2 [14] and in the test with BV-2 [15] was 100% in each case.

Values taken from ChEMBL document CHEMBL6074641, “Polypharmacological Drug Design Guided by Integrating Phenotypic and Restricted Fragment Docking Strategies” (J Med Chem, 2024).
